Results published in patent US10550105B2 (Ribon Therapeutics Inc., priority 2018, dated 2020).

Target: PARP7 (Homo sapiens (Human), UniProt Q7Z3E1)
Assay: Enzymatic assay for inhibition of PARP7: TR-FRET displacement of biotinylated Probe A from the TIPARP active site
Type: binding
Settings: Table A-1
Outline: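 Titrated compounds compete with the biotinylated probe; after an additional 30 min incubation at 25° C, time-delayed fluorescence (90 μs) is measured. Inhibition curves use a Hill coefficient that normally floats but may be held at 1.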

PARP7, sequence (Q7Z3E1 whole entry): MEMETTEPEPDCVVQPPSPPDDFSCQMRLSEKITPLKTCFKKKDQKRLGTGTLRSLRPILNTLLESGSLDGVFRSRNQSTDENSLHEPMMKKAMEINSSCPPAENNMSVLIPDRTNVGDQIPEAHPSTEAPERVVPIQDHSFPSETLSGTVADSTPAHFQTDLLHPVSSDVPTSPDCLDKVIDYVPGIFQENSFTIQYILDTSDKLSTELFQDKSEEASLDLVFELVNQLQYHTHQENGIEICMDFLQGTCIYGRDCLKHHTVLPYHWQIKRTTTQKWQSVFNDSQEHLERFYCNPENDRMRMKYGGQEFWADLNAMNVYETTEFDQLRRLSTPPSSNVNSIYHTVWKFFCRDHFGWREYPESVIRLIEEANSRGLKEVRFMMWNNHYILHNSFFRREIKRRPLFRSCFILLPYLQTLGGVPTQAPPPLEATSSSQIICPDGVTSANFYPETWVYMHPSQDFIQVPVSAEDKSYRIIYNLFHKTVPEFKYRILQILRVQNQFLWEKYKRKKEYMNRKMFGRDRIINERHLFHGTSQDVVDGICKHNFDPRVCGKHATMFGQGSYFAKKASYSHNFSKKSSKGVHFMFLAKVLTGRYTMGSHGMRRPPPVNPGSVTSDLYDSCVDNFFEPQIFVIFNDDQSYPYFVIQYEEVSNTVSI

Compound	IC50 [µM]
CC(=O)N1CCC(Oc2cccc3c2CN(c2cn[nH]c(=O)c2C(F)(F)F)C3)CC1 [Example 225, 5-(4-((1-Acetylpiperidin-4-yl)oxy)isoindolin-2-yl)-4-(trifluoromethyl)pyridazin-3(2H)-one]	< 0.1
N#Cc1ccc(N2CCC3(CC2)CN(C(=O)CCOC[C@@H]2CCCN2c2cn[nH]c(=O)c2C(F)(F)F)C3)nc1 [Example 105, 6-[2-(3-[[(2S)-1-[6-oxo-5-(trifluoromethyl)-1,6-dihydropyridazin-4-yl]pyrrolidin-2-yl]methoxy]propanoyl)-2,7-diazaspiro[3.5]nonan-7-yl]pyridine-3-carbonitrile]	0.1 to 1
O=C(CCOC[C@@H]1CCCN1c1cn[nH]c(=O)c1C(F)(F)F)N1CCN(c2ccc(Cl)cn2)CC1 [Example 481, (S)-5-(2-((3-(4-(5-Chloropyridin-2-yl)piperazin-1-yl)-3-oxopropoxy)methyl)pyrrolidin-1-yl)-4-(trifluoromethyl)pyridazin-3(2H)-one]	< 0.1
COc1ccc2c(c1)CN(c1cn[nH]c(=O)c1Cl)C2 [Example 155, 4-Chloro-5-(5-methoxyisoindolin-2-yl)pyridazin-3(2H)-one]	0.1 to 1
N#Cc1ccc(N2CCN(C(=O)c3ccc(Oc4cccc5c4CN(c4cn[nH]c(=O)c4C(F)(F)F)C5)cc3)CC2)nc1 [Example 494, 6-(4-(4-((2-(6-Oxo-5-(trifluoromethyl)-1,6-dihydropyridazin-4-yl)isoindolin-4-yl)oxy)benzoyl)pipoerazin-1-yl)nicotinonitrile]	< 0.1
O=c1[nH]ncc(N2Cc3ccncc3C2)c1C(F)(F)F [Example 280, 5-(1,3-Dihydro-2H-pyrrolo[3,4-c]pyridin-2-yl)-4-(trifluoromethyl)pyridazin-3(2H)-one]	0.1 to 1
O=C(C[C@H]1CC[C@H](COc2cn[nH]c(=O)c2Cl)O1)N1CCN(c2ncc(C(F)(F)F)cn2)CC1 (single isomer, unassigned) [Example 575 Isomer B]	≥ 1
[2H]C1([2H])N(C(=O)CCOC[C@H](C)Oc2cn[nH]c(=O)c2C(F)(F)F)C([2H])([2H])C([2H])([2H])N(c2ncc(Cl)cn2)C1([2H])[2H] [Example 715, (S)-5-((1-(3-(4-(5-Chloropyrimidin-2-yl)piperazin-1-yl-2,2,3,3,5,5,6,6-d8)-3-oxopropoxy)propan-2-yl)oxy)-4-(trifluoromethyl)pyridazin-3(2H)-one]	< 0.1
C[C@@H](COCCC(=O)N1CCN(c2cc(C(F)(F)F)ccn2)CC1)Nc1cn[nH]c(=O)c1C(F)(F)F [Example 674, (S)-5-((1-(3-Oxo-3-(4-(4-(trifluoromethyl)pyridin-2-yl)piperazin-1-yl)propoxy)propan-2-yl)amino)-4-(trifluoromethyl)pyridazin-3(2H)-one]	< 0.1
N#Cc1ccc(N2CCN(C(=O)CCOCC3CCCCN3c3cn[nH]c(=O)c3C(F)(F)F)CC2)nc1 (centres unmarked) [Example 130, 6-[4-[3-([1-[6-oxo-5-(trifluoromethyl)-1,6-dihydropyridazin-4-yl]piperidin-2-yl]methoxy)propanoyl]piperazin-1-yl]pyridine-3-carbonitrile]	0.1 to 1
CC1(C)CC(Nc2cccc3c2CN(c2cn[nH]c(=O)c2C(F)(F)F)C3)CC(C)(C)N1 [Example 300, 5-(4-((2,2,6,6-Tetramethylpiperidin-4-yl)amino)isoindolin-2-yl)-4-(trifluoromethyl)pyridazin-3(2H)-one]	0.1 to 1
O=C(CCOC[C@@H]1CCCN1c1cn[nH]c(=O)c1C(F)(F)F)NC1CCC(Nc2ccccn2)CC1 (single isomer, unassigned; isomer a) [Example 81 Isomer A]	0.1 to 1
C[C@@H](COCCC(=O)N1CCN(c2ccccn2)CC1)Nc1cn[nH]c(=O)c1C(F)(F)F [Example 675, (S)-5-((1-(3-Oxo-3-(4-(pyridin-2-yl)piperazin-1-yl)propoxy)propan-2-yl)amino)-4-(trifluoromethyl)pyridazin-3(2H)-one]	< 0.1
N#Cc1ccc(N2CCN(C(=O)N3CC(OC[C@@H]4CCCN4c4cn[nH]c(=O)c4C(F)(F)F)C3)CC2)nc1 [Example 125, 6-[4-(3-[[(2S)-1-[6-oxo-5-(trifluoromethyl)-1,6-dihydropyridazin-4-yl]pyrrolidin-2-yl]methoxy]azetidine-1-carbonyl)piperazin-1-yl]pyridine-3-carbonitrile]	< 0.1
CN(C)CCOc1ccc2c(n1)CN(c1cn[nH]c(=O)c1C(F)(F)F)C2 [Example 319, 5-(2-(2-(Dimethylamino)ethoxy)-5,7-dihydro-6H-pyrrolo[3,4-b]pyridin-6-yl)-4-(trifluoromethyl)pyridazin-3(2H)-one]	0.1 to 1
O=C(C[C@H]1CC[C@H]([C@@H]2CCCN2c2cn[nH]c(=O)c2C(F)(F)F)O1)N1CCN(c2ncc(Cl)cn2)CC1 [Example 147D, 5-[(2S)-2-[(2R,5R)-5-[2-[4-(5-chloropyrimidin-2-yl)piperazin-1-yl]-2-oxoethyl]oxolan-2-yl]pyrrolidin-1-yl]-4-(trifluoromethyl)-2,3-dihydropyridazin-3-one]	< 0.1

Compound	IC50 [µM]
N#Cc1ccc(N2CCN(C(=O)c3cccc(OCC4CCCCN4c4cn[nH]c(=O)c4C(F)(F)F)c3)CC2)nc1 (centres unmarked) [Example 40, 6-(4-[[3-([1-[6-oxo-5-(trifluoromethyl)-1,6-dihydropyridazin-4-yl]piperidin-2-yl]methoxy)phenyl]carbonyl]piperazin-1-yl)pyridine-3-carbonitrile]	0.1 to 1
N#Cc1ccc(N2CCN(C(=O)COCCNc3cn[nH]c(=O)c3C(F)(F)F)CC2)nc1 [Example 499, 6-[4-[2-(2-[[6-Oxo-5-(trifluoromethyl)-1,6-dihydropyridazin-4-yl]amino]ethoxy)acetyl]piperazin-1-yl]pyridine-3-carbonitrile]	< 0.1
C[C@@H](COCCC(=O)N1CCN(c2ncc(C(F)(F)F)cn2)CC1)Sc1cn[nH]c(=O)c1C(F)(F)F [Example 618, (S)-5-((1-(3-Oxo-3-(4-(5-(trifluoromethyl)pyrimidin-2-yl)piperazin-1-yl)propoxy)propan-2-yl)thio)-4-(trifluoromethyl)pyridazin-3(2H)-one]	< 0.1
N#Cc1ccc(N2CCC3(CN(C(=O)CCOC[C@@H]4CCCN4c4cn[nH]c(=O)c4C(F)(F)F)C3)C2)nc1 [Example 109, 6-[2-(3-[[(2S)-1-[6-oxo-5-(trifluoromethyl)-1,6-dihydropyridazin-4-yl]pyrrolidin-2-yl]methoxy]propanoyl)-2,6-diazaspiro[3.4]octan-6-yl]pyridine-3-carbonitrile]	0.1 to 1
CN(CCC(=O)N1CCN(c2ccc(C#N)cn2)CC1)C[C@H]1c2ccccc2CN1c1cn[nH]c(=O)c1Cl [Example 430, (R)-6-(4-(3-(((2-(5-Chloro-6-oxo-1,6-dihydropyridazin-4-yl)isoindolin-1-yl)methyl)(methyl)amino)propanoyl)piperazin-1-yl)nicotinonitrile]	0.1 to 1
N#Cc1cnc(N2CCN(C(=O)CCOCCOc3cn[nH]c(=O)c3C(F)(F)F)CC2)nc1 [Example 590, 2-(4-(3-(2-(6-Oxo-5-(trifluoromethyl)-1,6-dihydropyridazin-4-yloxy)ethoxy)propanoyl)piperazin-1-yl)pyrimidine-5-carbonitrile]	< 0.1
NC1CCN(c2cccc3c2CN(c2cn[nH]c(=O)c2C(F)(F)F)C3)CC1 [Example 296, 5-(4-(4-Aminopiperidin-1-yl)isoindolin-2-yl)-4-(trifluoromethyl)pyridazin-3(2H)-one]	0.1 to 1
CO[C@H](C)[C@@H](COCCC(=O)N1CCN(c2ncc(C(F)(F)F)cn2)CC1)Nc1cn[nH]c(=O)c1C(F)(F)F [Example 607, 5-[[(2R,3R)-3-Methoxy-1-(3-oxo-3-[4-[5-(trifluoromethyl)pyrimidin-2-yl]piperazin-1-yl]propoxy)butan-2-yl]amino]-4-(trifluoromethyl)-2,3-dihydropyridazin-3-one]	< 0.1
CC(=O)N1CCC(NCc2cc3c(cc2F)CN(c2cn[nH]c(=O)c2C(F)(F)F)C3)CC1 [Example 24, 5-(5-[[(1-acetylpiperidin-4-yl)amino]methyl]-6-fluoro-2,3-dihydro-1H-isoindol-2-yl)-4-(trifluoromethyl)-2,3-dihydropyridazin-3-one]	< 0.1
CN(CC1CCCO1)c1cccc2c1CN(c1cn[nH]c(=O)c1C(F)(F)F)C2 (centres unmarked) [Example 270, 5-(4-(Methyl((tetrahydrofuran-2-yl)methyl)amino)isoindolin-2-yl)-4-(trifluoromethyl)pyridazin-3(2H)-one]	< 0.1
O=c1[nH]ncc(N2Cc3cccc(NCc4ccncc4)c3C2)c1C(F)(F)F [Example 266, 5-(4-((Pyridin-4-ylmethyl)amino)isoindolin-2-yl)-4-(trifluoromethyl)pyridazin-3(2H)-one]	< 0.1
C[C@@H](COCCC(=O)N1CCN(c2ncc(C(F)(F)F)cn2)CC1)Oc1cn[nH]c(=O)c1Cl (single isomer, unassigned) [Example 578 Isomer A]	< 0.1
COCCOc1ccc2c(c1)CN(c1cn[nH]c(=O)c1C(F)(F)F)C2 [Example 229, 5-(5-(2-Methoxyethoxy)isoindolin-2-yl)-4-(trifluoromethyl)pyridazin-3(2H)-one]	< 0.1
C[C@@H](COCCC(=O)N1CCN(c2ccc(C(F)(F)F)cn2)CC1)Oc1cn[nH]c(=O)c1C(F)(F)F [Example 584, 5-[[(2S)-1-(3-oxo-3-[4-[5-(trifluoromethyl)pyridin-2-yl]piperazin-1-yl]propoxy)propan-2-yl]oxy]-4-(trifluoromethyl)-2,3-dihydropyridazin-3-one]	< 0.1
O=c1[nH]ncc(N2Cc3cccc(NC4CCCOC4)c3C2)c1C(F)(F)F (centres unmarked) [Example 307, 5-(4-((Tetrahydro-2H-pyran-3-yl)amino)isoindolin-2-yl)-4-(trifluoromethyl)pyridazin-3(2H)-one]	0.1 to 1
O=C(CCNC[C@H]1c2ccccc2CN1c1cn[nH]c(=O)c1C(F)(F)F)N1CCN(c2ccc(C(F)(F)F)cn2)CC1 [Example 630, (R)-5-(1-(((3-Oxo-3-(4-(5-(trifluoromethyl)pyridin-2-yl)piperazin-1-yl)propyl)amino)methyl)isoindolin-2-yl)-4-(trifluoromethyl)pyridazin-3(2H)-one]	≥ 1
